Data set [1] can be described thus: Cytotoxicity (MTS) in CHO/CYP1B1 cells. It is filed as cell-based, Chinese Hamster. Conditions: Chinese hamster; text of b216; read-out: IC50, proliferation of CHO/CYP1B1 cells. The protocol:
(§1) CHO/CYP1A1 and CHO/CYP1B1 cells: CHO cells containing recombinant CYP1A1 and recombinant CYP1B1 co-expressing P450 reductase, namely (CHO/CYP1A1) and (CHO/CYP1B1) respectively, were cultured using the standard culture medium for CHO cells supplemented with 0.4 mg/ml G418 disulfate salt and 0.3 μM methotrexate (Sigma/Aldrich Co., Gillingham, Dorset, UK) according to methods described in the literature (ibid.) Cells were grown at 37° C. in a humidified atmosphere plus 5% CO2.
(§2) A single cell suspension of CHO, CHO/CYP1A1 or CHO/CYP1B1 in 100 μl of the required cell culture medium was seeded onto 96-well plates at a cell density of 1500 cells per well and placed in an incubator for 24 h at 37° C. The stock solution of test compound in DMSO was then added to give a concentration range of 100, 30, 10, 3, 1, 0.3, 0.1, 0.03, 0.01, 0.003, 0.001, 0 μM. The final concentration of DMSO 0.2% was found not to affect the growth characteristics of the various CHO cell lines. The cells were incubated with the test compound for 96 h after which all the medium was aspirated and replaced with 100 μl of fresh medium to compensate for the loss of medium due to evaporation. The cells were incubated with 20 μl of the MTS assay reagent for 1.5 h and the absorbance per well at 510 nm measured using a plate reader. The mean absorbance and standard deviation for each test compound concentration was calculated versus a series of controls including (a) cells plus medium, (b) cell plus medium containing DMSO 0.2%, (c) medium alone, and (d) medium containing DMSO 0.2% and a range of test compound concentrations from 0 to 100 μM.
(§3) The MTS assay is a homogeneous, colorimetric method for determining the number of viable cells in proliferation, cytotoxicity or chemosensitivity assays (Cali J J, et al., “Luminescence-Based Methods and Probes for Measuring Cytochrome P450 Activity”, pp. 1-29. Promega Corporation, United States, 2004, the contents of which are incorporated herein by reference). The assay is composed of solutions of tetrazolium compound [3-(4,5-dimethylthiazol-2-yl)-5-(3-carboxymethoxyphenyl)-2-(4-sulfophenyl)-2H-tetrazolium, inner salt; MTS] and an electron coupling reagent (phenazine methosulfate) PMS. MTS is bioreduced by cells into a formazan product that is soluble in tissue culture medium. The absorbance of the formazan product at 510 nm can be directly measured from 96-well assay plates. The quantity of formazan product as measured by the amount of absorbance at 490 or 510 nm is directly proportional to the number of living cells in culture.

In data set [2] the test system is CHO/CYP1B1 cells. Nature of the data set: Cytotoxicity (MTS) in CHO/CYP1B1 cells. In kind it is cell-based, Chinese Hamster. The protocol:
as §1, §2, §3

In data set [3] the target is T1, CYP1A2 (Homo sapiens, UniProt P05177).
T1 sequence (P05177 1-516): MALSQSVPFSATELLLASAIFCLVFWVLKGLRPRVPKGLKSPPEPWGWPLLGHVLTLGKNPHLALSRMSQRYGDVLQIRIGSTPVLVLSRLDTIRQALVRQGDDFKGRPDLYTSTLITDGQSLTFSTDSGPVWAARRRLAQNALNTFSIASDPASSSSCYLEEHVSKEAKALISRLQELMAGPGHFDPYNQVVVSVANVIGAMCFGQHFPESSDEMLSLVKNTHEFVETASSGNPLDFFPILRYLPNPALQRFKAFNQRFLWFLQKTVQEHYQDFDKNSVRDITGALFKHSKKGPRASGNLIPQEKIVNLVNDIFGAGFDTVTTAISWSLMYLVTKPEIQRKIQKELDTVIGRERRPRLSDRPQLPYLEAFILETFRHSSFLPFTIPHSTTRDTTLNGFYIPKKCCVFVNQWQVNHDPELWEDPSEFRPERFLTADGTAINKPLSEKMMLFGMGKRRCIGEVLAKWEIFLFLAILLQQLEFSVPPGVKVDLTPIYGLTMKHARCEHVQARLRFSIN
Nature of the data set: CYP phenotyping, metabolic stability. It is filed as in vitro ADME. Conditions: CYP1A2 (40 pm/mL); 1 μM; after 60 minutes. As for the experimental part:
As mentioned above, a feature of the compounds of the invention is their metabolism by CYP1B1 which is expressed at high frequency in a wide range of human cancers of different histogenetic types, but not in normal tissues. […] Compounds V and II were exposed to a panel of six CYPs (see Table 5 below).
(§4) CYP metabolism studies were performed by Cerep Laboratories (Redmond, Wash., USA). Compounds were screened in duplicate at 1 μM in the presence of CYP enzyme, NADP (1.3 mM), D-Glucose-6-phosphate (3.3 mM) and Glucose-6-phosphate dehydrogenase. Following incubation at 0 and 60 minutes, parent compound levels were determined using standard HPLC/MS/MS procedures. The results are expressed as percent parent compound remaining after 60 minutes.

Data set [4] addresses CYP2C9 (Homo sapiens, UniProt P11712). In words: CYP phenotyping, metabolic stability. In kind it is in vitro ADME. Conditions: CYP2C9 (10 pm/mL); 1 μM; after 60 minutes. As for the experimental part:
(§5) Compounds V and II were exposed to a panel of six CYPs (see Table 5 below).
as §4

Data set [5] concerns the target CYP2D6 (Homo sapiens, UniProt P10635). Nature of the data set: CYP phenotyping, metabolic stability. To be noted: CYP2D6 (10 pm/mL); 1 μM; after 60 minutes. It is filed as in vitro ADME. The protocol: as §5, §4
The target in data set [6] is CYP3A4 (Homo sapiens, UniProt P08684). Nature of the data set: CYP phenotyping, metabolic stability. It is filed as in vitro ADME. Conditions: CYP3A4 (10 pm/mL); 1 μM; after 60 minutes. As for the experimental part: as §5, §4
Data set [7] has as its target CYP2C19 (Homo sapiens, UniProt P33261). Nature of the data set: CYP phenotyping, metabolic stability. Conditions: CYP2C19 (10 pm/mL); 1 μM; after 60 minutes. It is filed as in vitro ADME. The protocol:
as §5, §4

CYP3A4, sequence (P08684 whole entry, species assumed): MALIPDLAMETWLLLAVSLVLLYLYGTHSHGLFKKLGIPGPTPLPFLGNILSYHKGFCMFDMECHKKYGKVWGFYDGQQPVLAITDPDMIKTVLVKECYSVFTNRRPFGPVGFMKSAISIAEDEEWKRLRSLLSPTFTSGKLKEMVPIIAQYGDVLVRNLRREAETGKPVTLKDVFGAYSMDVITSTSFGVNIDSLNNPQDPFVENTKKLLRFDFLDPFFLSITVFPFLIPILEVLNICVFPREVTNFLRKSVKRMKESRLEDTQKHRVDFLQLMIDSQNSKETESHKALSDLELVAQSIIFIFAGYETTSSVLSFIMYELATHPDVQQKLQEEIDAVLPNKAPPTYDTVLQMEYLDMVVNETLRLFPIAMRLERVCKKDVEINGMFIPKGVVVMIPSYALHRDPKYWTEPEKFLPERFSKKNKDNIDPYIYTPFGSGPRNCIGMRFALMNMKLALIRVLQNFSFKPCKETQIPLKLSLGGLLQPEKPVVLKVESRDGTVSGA
CYP2C9, sequence (P11712 whole entry, species assumed): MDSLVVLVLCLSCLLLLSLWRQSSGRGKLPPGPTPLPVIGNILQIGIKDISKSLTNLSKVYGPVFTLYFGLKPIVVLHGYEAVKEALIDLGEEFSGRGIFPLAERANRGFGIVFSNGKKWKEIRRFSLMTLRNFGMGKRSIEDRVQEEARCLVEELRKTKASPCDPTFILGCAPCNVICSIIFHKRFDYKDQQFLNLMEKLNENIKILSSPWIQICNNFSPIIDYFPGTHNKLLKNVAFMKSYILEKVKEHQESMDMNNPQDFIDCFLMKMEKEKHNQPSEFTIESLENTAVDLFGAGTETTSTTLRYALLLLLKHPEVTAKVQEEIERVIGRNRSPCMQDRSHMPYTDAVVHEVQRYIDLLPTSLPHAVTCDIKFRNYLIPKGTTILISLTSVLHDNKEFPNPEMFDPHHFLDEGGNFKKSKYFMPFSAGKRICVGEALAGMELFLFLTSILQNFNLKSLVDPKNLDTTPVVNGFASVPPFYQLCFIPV
CYP2C19, sequence (P33261 whole entry, species assumed): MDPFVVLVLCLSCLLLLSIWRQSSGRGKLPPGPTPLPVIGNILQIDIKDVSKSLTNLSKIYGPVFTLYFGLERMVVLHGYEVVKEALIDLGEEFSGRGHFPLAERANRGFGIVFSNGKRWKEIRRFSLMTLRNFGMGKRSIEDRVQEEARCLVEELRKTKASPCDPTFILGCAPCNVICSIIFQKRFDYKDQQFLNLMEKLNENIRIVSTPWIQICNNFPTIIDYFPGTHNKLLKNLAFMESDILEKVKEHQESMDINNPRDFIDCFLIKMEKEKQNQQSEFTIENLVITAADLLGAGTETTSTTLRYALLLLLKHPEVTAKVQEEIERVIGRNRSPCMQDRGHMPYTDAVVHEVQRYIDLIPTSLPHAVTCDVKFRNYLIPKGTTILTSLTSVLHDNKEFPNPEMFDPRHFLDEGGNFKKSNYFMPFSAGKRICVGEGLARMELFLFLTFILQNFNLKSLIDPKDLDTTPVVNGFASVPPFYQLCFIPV
CYP2D6, sequence (P10635 whole entry, species assumed): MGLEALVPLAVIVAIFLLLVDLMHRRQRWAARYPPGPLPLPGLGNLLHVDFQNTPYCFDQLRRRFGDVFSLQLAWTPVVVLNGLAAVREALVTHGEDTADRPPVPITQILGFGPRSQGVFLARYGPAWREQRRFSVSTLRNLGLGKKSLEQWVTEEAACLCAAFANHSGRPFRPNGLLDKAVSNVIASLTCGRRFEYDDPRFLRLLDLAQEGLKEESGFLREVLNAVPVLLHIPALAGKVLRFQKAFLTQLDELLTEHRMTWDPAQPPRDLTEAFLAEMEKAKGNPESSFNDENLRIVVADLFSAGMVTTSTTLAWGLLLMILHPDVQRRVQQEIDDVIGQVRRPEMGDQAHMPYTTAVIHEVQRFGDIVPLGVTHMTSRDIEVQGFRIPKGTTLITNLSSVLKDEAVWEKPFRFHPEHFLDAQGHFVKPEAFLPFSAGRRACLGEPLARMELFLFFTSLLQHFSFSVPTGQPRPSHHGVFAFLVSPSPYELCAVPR

Consider `COc1ccc(-c2cc(-c3ccc4c(c3)OCO4)cc(=O)[nH]2)cc1OC` [Compound V], for which, in data set [1], the IC50 at 96 h was 80 nM. Further, the “activity against CHO/CYP1B1 cells (in words)” value in data set [2] was “strongly inhibit proliferation”. Further, the “Mean Parent Remaining (%)” value in data set [3] is given as 71%; in data set [4], 109%; in data set [5], 100%; in data set [6], 93%; in data set [7], 111%.

Values taken from US8236827B2, “Compounds” (Spear Therapeutics Limited, priority 2009, dated 2012).
